Measurements as given in publication PMC7288058, “Modulating the Properties of Fe(III) Macrocyclic MRI Contrast Agents by Appending Sulfonate or Hydroxyl Groups” (Molecules, 2020).
Values joined by “and” are separate entries in the source; they are usually repeats but may differ in a detail not shown here. Equal values may be shown once.

Key:
[1] = pH-potentiometric titrations of the intact Fe(III) complexes; assay type: physicochemical; conditions: potentiometric titration, 25 °C, 0.10 M NaCl, 1–2 mM meglumine
Description: The pH-potentiometric titrations of the intact Fe(III) complexes were studied to determine the equilibrium constants for deprotonation of ligand groups such as the hydroxyl pendants or water ligand. […] For Fe(L1)(OH2) and Fe(L3)(OH2), either an alcohol pendant group or water ligand might ionize but, for Fe(L2), we only consider alcohol pendant groups. […] Ionization of the water ligand at near neutral pH cannot be ruled out, but is not considered to be likely based on prior studies [19]. […] The group that produces this ionization is not likely to be a bound water or hydroxyl group given that the coordination sphere is very similar to that of Fe(L3)(OH2). […] A weak hydrogen bonding interaction to a hydroxyl pendent or bound water might produce such an environment.
All solutions were prepared by using carbonate-free water.
Fe(L1)(OH2): The solution contained 0.527 mM Fe(III) complex added as the chloride salt, 1.00 mM meglumine, 0.100 M NaCl, and 3.72 mM HCl to decrease the pH of the solution to pH 3 in total volume of 20.00 mL. The solution was titrated with a 98.83 mM NaOH solution. Then, 5.00 µL aliquots of the NaOH solution were added over 60 s with an interval of 300 s using a Nexus 3000 High Flow Syringe Pump from Chemyx Inc (Stafford, TX, USA) equipped with a 10-mL Hamilton gastight syringe.
Fe(L2): The solution contained 0.75 mM Fe(III) complex added as the chloride salt, 2.00 mM meglumine, 0.100 M NaCl, and 6.00 mM HCl to decrease the pH of the solution to pH 3 in total volume of 25.00 mL. The solution was titrated with a 94.86 mM NaOH solution. Then, 5.00 µL aliquots of the NaOH solution were added over 60 s with an interval of 300 s using a Nexus 3000 High Flow Syringe Pump from Chemyx Inc (Stafford, TX) equipped with a 10-mL Hamilton gastight syringe.
In all fits of the data, meglumime was used as a third reagent, and the equilibrium equation corresponding to its ionization was added to the model data fit as determined from separate titrations. The titration was completed under Ar(g) at 25 °C. The titrations were monitored from pH 3 to pH 11. Equilibrium constants for all complexes were determined by fitting the data using [sequence] 2013 Version 6.0.1. Speciation diagrams were plotted by utilizing HySS Version 4.0.31.

[2] = T1/T2 relaxivity measurements (4.7 T MRI scanner, 9.4 T NMR); conditions: pH 7.4, 37 °C; for r1 4.7 T / r2 4.7 T / r1 9.4 T: buffer
Method: The r1 and r2 relaxivity of the three complexes in buffer and HSA on a 4.7-T MRI scanner and 9.4-T NMR spectrometer are shown in Table 2. In buffer, the r1 relaxivity values of Fe(L1)(OH2) and Fe(L3)(OH2) are similar at 2.0 mM^−1∙s^−1 and 2.2. mM^−1∙s^−1, respectively, at 4.7 T. Both complexes have higher relaxivity than Fe(EDTA) (1.4 mM^−1∙s^−1 at 4.7 T) which has a single exchangeable inner-sphere water molecule. The r1 relaxivity value of the […] complex in buffer is two-fold less (1.0 mM^−1∙s^−1) than that of Fe(L1)(OH2) or […] at 4.7 T. In HSA-containing solutions, the r1 relaxivity values of Fe(L1)(OH2), Fe(L2) and Fe(L3)(OH2) change slightly, consistent with weak binding to this blood protein. […] As expected, increasing the field strength from 4.7 T to 9.4 T caused a decrease in the r1 relaxivity value of Gd(DTPA) to 2.5 mM^−1∙s^−1 from 3.1 mM^−1∙s^−1 [19]. […] This peculiar feature of Fe(III) complexes was predicted from simulation of NMRD profiles.
Relaxivity of the complexes was determined at 4.7 T (small animal MRI) and 9.4 T (400 MHz NMR). Both T1 and T2 experiments were performed at 37 °C for the concentration range of 50.0 µM to 0.400 mM Fe(III) complex. The solutions contained 0.100 M NaCl and HEPES buffer (pH 7.4, 20 mM). An inversion recovery True FISP acquisition was used to measure T1 relaxation rate constants. T2 relaxation rates were measured by using multi-echo, Carr–Purcell–Meiboom–Gill spin-echo sequence with a fixed TR of 3000 ms and TE times ranging from 20–1200 ms. The T1 and T2 relaxivity values were calculated by using linear regression fitting of 1/T1 (s^−1) and 1/T2 (s^−1) versus concentration (mM) in Microsoft Excel.

[3] = Cyclic voltammetry, Fe(III)/Fe(II) electrode potential; assay type: physicochemical; conditions: for electrode potential (E1/2) vs. Ag/AgCl: 0.10 M potassium chloride
Method: Cyclic voltammetry experiments were carried out in aqueous solutions containing 0.10 M potassium chloride at acidic and neutral pH values with potassium ferricyanide salt in aqueous solution as a reference (Figure S8, Supplementary Materials). […] The electrode potential (E1/2) of Fe(L1)(OH2) at pH 3 was 227 mV vs. Ag/AgCl (515 mV vs. normal hydrogen electrode, NHE) and was −209 mV vs. Ag/AgCl (79 mV vs. NHE) at pH 7. […] At pH 3 the E1/2 was estimated as 264 mV vs. Ag/AgCl (552 mV vs. NHE), and, at pH 7, it was estimated as −618 mV vs. Ag/AgCl (−330 mV vs. NHE). For comparison, the E1/2 of Fe(L3)(OH2) at pH 3 was reported as 112 mV vs. Ag/AgCl (400 mV vs. NHE) and, at pH 7, the value was −588 mV vs. Ag/AgCl (−300 mV vs. NHE).
Cyclic voltammetry measurements were performed in 10.0-mL aqueous solutions containing 0.100 M […] as supporting electrolyte and 1.00 mM Fe(III) complexes. A standard three-electrode cell was used with a polished glassy carbon as the working electrode, a Pt wire as the auxiliary electrode, and an Ag/AgCl (1.00 mM) reference electrode. The samples were purged with extra pure N2 gas to remove the dissolved oxygen for each measurement. Current was measured with a 10-s prescan delay between −1.5 V and 1.5 V at a sweep rate of 100 and 500 mV/s, where 1.00 mM ferrocyanide was used as a standard solution. The redox potential of Fe(II)/(III) was calculated from the anodic (Epa) and cathodic (Epc) potentials, as EFe(II)/(III) = (Epa + Epc)/2 in reference to Ag/AgCl (1.00 mM), then converted to a value referenced to the normal hydrogen electrode (NHE).

[4] = Aqueous solubility (observations); assay type: physicochemical; conditions: for aqueous solubility: words
[5] = Kinetic inertness / dissociation monitored by UV-Vis absorbance; assay type: physicochemical; conditions: 100 mM HCl, 37 °C
Method: The complexes have electronic absorbance bands at 325 nm and 330 nm with extinction coefficients ranging from 1570 M^−1∙cm^−1 to 3800 M^−1∙cm^−1 (Figures S16–S21, Table S2, Supplementary Materials). These absorbance peaks were monitored to study the dissociation of the complexes in 100 mM HCl acid solution, or in solutions containing 25 mM hydrogen carbonate and 0.40 mM hydrogen phosphate at 37 °C. […] In acidic solution (100 mM HCl), the dissociation of Fe(L1)(OH2) was estimated as 18.1% over 24 h and 53.6% over 72 h based on absorbance changes. For comparison, the dissociation of the Fe(L2) complex in acidic solution (100 mM HCl) was 7.9% over 48 h, and the dissociation of Fe(L3)(H2O) was 14% over 24 h and 38% over 72 h.
Absorbance of Fe(III) complexes was measured from 200–800 nm over a period of 48 and 72 h. A Peltier temperature controller was used to keep the temperature at 37 °C. The sample solutions contained 0.200 mM Fe(III) complex. Solutions for kinetic inertness experiments contained 25.0 mM NaHCO3, […] Na2HPO4, and 10.0 mM HEPES buffer (pH 7.4). Acidic solutions for the kinetic inertness experiments contained 0.10 M HCl. For each of these experiments, extinction coefficients were determined by using by using the Beer–Lambert law as given in Table S2 (Supplementary Materials).

[6] = 1-octanol/water partition coefficient (log P) by ICP-MS; assay type: physicochemical; conditions: 20 mM HEPES pH 7.4, 100 mM NaCl
Method: To compare the lipophilicity of the complexes, the 1-octanol/water partition coefficients (log P) were determined.
Fe(III) complex solutions (0.500 mM) were prepared in 1.00 mL of H2O with 20.0 mM HEPES buffer (pH 7.4) and 100.0 mM NaCl. 0.500 mL of Fe(III) complex solution and 0.500 mL of 1-octanol was prepared. The mixture was shaken for 24 h, then centrifuged at 13,000 rpm for 1 min. Then, the solution was allowed to stand for 1 h. Iron concentration in the aqueous layer before and after mixing with 1-octanol was determined by ICP-MS. […] (3) logP=log(Co/Cw).

SMILES	Log K1 (pKa2) [1]	Log K2 (pKa1) [1]	r1 4.7 T [2]	r2 4.7 T [2] [mM⁻¹ s⁻¹]	r1 9.4 T [2] [mM⁻¹ s⁻¹]	r1 in HSA 4.7 T [2] [mM⁻¹ s⁻¹]	r2 in HSA 4.7 T [2] [mM⁻¹ s⁻¹]	electrode potential (E1/2) vs. Ag/AgCl ([3]; pH 3, aqueous) [mV]	electrode potential (E1/2) vs. NHE ([3]; pH 3, converted from Ag/AgCl) [mV]	electrode potential (E1/2) vs. Ag/AgCl ([3]; pH 7, aqueous) [mV]	electrode potential (E1/2) vs. NHE ([3]; pH 7, converted from Ag/AgCl) [mV]	aqueous solubility [4]	dissociation in acidic solution ([5]; over 24 h, estimated from absorbance changes) [%]	dissociation in acidic solution ([5]; over 72 h, estimated from absorbance changes) [%]	Log P [6]	solubility ([4]; pH 6–7, concentration needed for 17O-NMR) [mM]	dissociation in acidic solution ([5]; over 48 h) [%]
C[C@H]([O-])CN1CCN(CCCS(=O)(=O)[O-])CCN(C[C@H](C)O)CC1.O.[Fe+3] [Fe(L1)(OH2)]	7.55 ± 0.08	3.39 ± 0.17	2.0 mM⁻¹ s⁻¹ and 2.0 ± 0.19 mM⁻¹ s⁻¹	6.1 ± 0.77	2.0 ± 0.2	2.5 ± 0.63	5.5 ± 0.98	227	515	−209	79	excellent aqueous solubility	18.1	53.6	−1.67		
C[C@H]([O-])CN1CCN(C[C@H](C)O)CCN(C[C@H](C)O)CC1.[Fe+3] [Fe(L2)]	11.78 ± 0.11	6.57 ± 0.05	0.97 ± 0.12 mM⁻¹ s⁻¹	1.8 ± 0.47	1.4 ± 0.08	1.2 ± 0.22	2.3 ± 1.1	~264	~552	~−618	~−330	moderate solubility			−1.60 ± 0.1	< 10	7.9
